For data set [1] the following is noted: 12 MHz; cited from earlier work.
Data set [2] can be described thus: Potentiometric titrations of compound 5 (protonation constants). It counts as physicochemical. As to the method: T=298K, [L]=0.0625-1 μmol, [extra-HCl]=0-37.3 μmol in NMe4Cl (0.1 M); total initial volume: 4 mL; burette: [NMe4OH]=0.05 M.
Potentiometric titrations were performed to study the deprotonation of compound 5 (FIG. 6). The initial solution of compound 5 alone has a pH of ˜8.4; this value correlates well with extensive deprotonation observed in ATR-FTIR spectrum. Therefore, a solution of HCl in trimethylammonium chloride (0.1 M) was gradually added to the solution to obtain a series of solutions with varied HCl/5 ratios (0→597), while maintaining the total volume constant. To each prepared solution, a titrant solution of tetramethylammonium hydroxide (0.05 M) was added while the pH of the solution recorded; this enabled preparation of a series of titration curves (FIG. 7).
The protonation constant βh for the following equilibrium is defined by equation 1, where L represents the fully deprotonated form (L^14−) of compound 5 (LH14). H is the proton (charges are omitted).
[formula] As dissociation constants Ka are commonly defined by:
[formula] [formula] [formula] it is evident that Ka=log βh−log βh-1 (equation 3)
Table 1 reports all protonation constants determined by titration curve refinement and the corresponding acidity constants. All pKa values were ascribed to successive deprotonation of the carboxylic acids, followed by ammonium functions.

A short description of data set [3]: Potentiometric titrations of compound 5 with Gd(III) (stability constants and speciation of Gd(III) complexes). It counts as binding. The text has this:
Considering the collection of results obtained for the Gd(III)-compound 5, the best chemical model which fits the data corresponds to: (1) mononuclear GdL species for Gd:L ratio lower than 1, (2) binuclear species Gd2L for Gd:L ratio higher than 1 or (3) trinuclear species Gd3L for Gd:L ratio higher than 2.
The complexation of compound 5 with Gd(III) was studied by potentiometric titrations. While maintaining the amount of compound 5 (0.5 μmol) and HCl (9.95 μmol) constant within the cell, a solution of GdCl3 was then added to reach a specified ratio. This solution was then titrated with tetramethylammonium hydroxide (NMe4OH). It was noted that with the solution containing the highest Gd:L ratios, the addition of same amount of base caused a slower increase of pH (FIG. 12A). This could be explained by the displacement of protons from the protonated groups during Gd(III) complexation, thus acidifying the medium.
The stability constants of the Gd(III) complexes are expressed by the general formula:
[formula] with M being the metal ion, L the ligand, and H the proton (the charges are omitted), and dissociation constant Kmlh can be defined similarly to the case of free ligand as:
[formula] [formula] [formula] Analogously, pKmlh=log βmlh−log βmlh-1 (equation 6)
The stability constants of the Gd(III) complexes are reported in the Table 2 and distribution curves given in FIGS. 12B, 12C and 12D, respectively for 1:1, 2:1 and 3:1 Gd(III):compound 5 ratios.

A further data set deals with HeLa cells. Kind of data set: In vitro cytotoxicity MTT assay, HeLa. It counts as cell-based. Conditions: concentrations higher than 1 mM. A general note: Tetrazolium dyes change colour on reduction, which living cells bring about.
Another data set relates to HepG2 cells. Briefly: In vitro cytotoxicity MTT assay, HepG2. The class given is cell-based. Conditions: concentrations higher than 1 mM.
The conditions of data set [4]: cited from earlier work.

Consider three compounds from patent publication US11717580B2, “Cyclodextrin-linked polyvalent ligands for complexation of metal ions” (UTI LIMITED PARTNERSHIP, priority 2018, dated 2023).

Like-named read-outs stand apart in the source and are kept apart here. A value given as a limit tells only on which side of the number the result lay.

Regarding `CO[C@@H]1[C@@H](OC)[C@H]2O[C@H]3[C@H](OC)[C@@H](OC)[C@@H](O[C@H]4[C@H](OC)[C@@H](OC)[C@@H](O[C@H]5[C@H](OC)[C@@H](OC)[C@@H](O[C@H]6[C@H](OC)[C@@H](OC)[C@@H](O[C@H]7[C@H](OC)[C@@H](OC)[C@@H](O[C@H]8[C@H](OC)[C@@H](OC)[C@@H](O[C@@H]1[C@@H](CN(CC(=O)O)CC(=O)O)O2)O[C@@H]8CN(CC(=O)O)CC(=O)O)O[C@@H]7CN(CC(=O)O)CC(=O)O)O[C@@H]6CN(CC(=O)O)CC(=O)O)O[C@@H]5CN(CC(=O)O)CC(=O)O)O[C@@H]4CN(CC(=O)O)CC(=O)O)O[C@@H]3CN(CC(=O)O)CC(=O)O` [compound 3], the relaxivity in data set [1] is 8.8 mM⁻¹ s⁻¹.
Broadly, the pKa is the pH at which an ionisable group is half protonated. On to `O=C(O)CN(CC(=O)O)Cc1cn(C[C@H]2O[C@@H]3O[C@H]4[C@H](O)[C@@H](O)[C@@H](O[C@H]5[C@H](O)[C@@H](O)[C@@H](O[C@H]6[C@H](O)[C@@H](O)[C@@H](O[C@H]7[C@H](O)[C@@H](O)[C@@H](O[C@H]8[C@H](O)[C@@H](O)[C@@H](O[C@H]9[C@H](O)[C@@H](O)[C@@H](O[C@H]2[C@H](O)[C@H]3O)O[C@@H]9Cn2cc(CN(CC(=O)O)CC(=O)O)nn2)O[C@@H]8Cn2cc(CN(CC(=O)O)CC(=O)O)nn2)O[C@@H]7Cn2cc(CN(CC(=O)O)CC(=O)O)nn2)O[C@@H]6Cn2cc(CN(CC(=O)O)CC(=O)O)nn2)O[C@@H]5Cn2cc(CN(CC(=O)O)CC(=O)O)nn2)O[C@@H]4Cn2cc(CN(CC(=O)O)CC(=O)O)nn2)nn1` [Compound 5], for which, in data set [2] (compound 5 alone), the “pH of initial solution” value is roughly 8.4. The “log βLHh” value in data set [2] (species LH) was 8.80; in data set [2] (species LH2), 17.77; in data set [2] (species LH3), 26.44; in data set [2] (species LH4), 34.51; in data set [2] (species LH5), 42.44; in data set [2] (species LH6) it was 50.03. Further, the “log βLHh” value is listed as 56.23 in data set [2] (species LH7), 61.22 in data set [2] (species LH8), 64.85 in data set [2] (species LH9) and 67.42 in data set [2] (species LH10). The pKa in data set [2] (species LH) is reported as 8.80; in data set [2] (species LH2), 9.08; in data set [2] (species LH3), 8.56; in data set [2] (species LH4) it was 8.07; in data set [2] (species LH5) it was roughly 7.93; in data set [2] (species LH6), roughly 7.59. Further, the pKa in data set [2] (species LH7) was 6.20; in data set [2] (species LH8) it was 4.99; in data set [2] (species LH9), 3.63; in data set [2] (species LH10), 2.57; in data set [2] (species LH11-LH21), less than 2. For the same compound, in data set [3] (dinuclear species Gd2L (MLH 210)), the “log βMLHh” value is recorded as 36.28. Besides, the “log βGd (210)−log βGd (110)” value in data set [3] (introduction of second Gd(III) cation) was 11.19. The “log βGd (310)−log βGd (210)” value in data set [3] (introduction of third Gd(III) cation) is on record as 7.63. Moreover, the “cytotoxic effect (inhibition)” value in the data set on HeLa cells and in the data set on HepG2 cells was 20-40% each time.
`CC[N+](CC)(CC)CC` [triethylammonium]: in data set [4], the pKa is on record as roughly 10.75.
